In patent US20130309209A1, “FORMATION OF HEMATOPOIETIC PROGENITOR CELLS FROM MESENCHYMAL STEM CELLS” (Center for Regenerative Medicine of Barcelona, priority 2010, published 2013):

Key:
Human MSCs [1] = experiment: Flow cytometry surface staining (CD34, CD45, CD43, CD133) of MSCs undergoing hematopoietic transdetermination; type: cell-based
Text: The following antibodies were used for flow cytometry and western blotting experiments respectively: mouse anti-human CD34-APC (130-046-703, Miltenyi), mouse anti-human CD45-FITC (130-080-202, Miltenyi), mouse anti-human CD133/2 (293C3)-PE (130-090-853, Miltenyi), mouse anti-human CD43-FITC (560978, BD biosciences), mouse APC isotype control (555751, BD biosciences), mouse FITC isotype control (555748, BD biosciences), The TGFβRI SB431542 (S4317, Sigma-Aldrich) and MEK/ERK U0126 (U120, Sigma-Aldrich) inhibitors were diluted in DMSO accordingly to the manufacturers' instruction and used at a final concentration of 25 and 10 μM respectively during the duration of the experiments with media changes every second day unless otherwise stated. Equal concentration of the solvent alone was used as a negative control.
Human OE-MSC and MSC-AT cells (passage 7) were infected (day 0) with pMX-based retroviruses by spinfection of the cells at 1850 rpm for 1 hour in the presence of polybrene (4 μg/ml). Cells were maintained in the retroviruses-containing media for 12 hours and then the media was removed and replaced by the cell-specific culture medium. Twenty four hours after the first infection (day 1), a second round of infection was performed. The day after (day 2), cells were maintained in their respective media for 24 hours before being switched to a Wicell media containing DMEM/F12 (Invitrogen) supplemented with 20% Knockout Serum Replacement (Invitrogen), 1 mM L-glutamine, 0.1 mM non-essential aminoacids, […] β-mercaptoethanol and 10 ng/ml bFGF.
Human MSCs undergoing hematopoietic transdetermination were harvested at the indicated time points. Cells were washed once with PBS and further incubated with the corresponding antibodies in the presence of FACS blocking buffer (1×PBS/10% FCS) for 1 hour on ice in the absence of light. After incubation, cells were washed three times with 1 ml FACS blocking buffer and resuspended in a total volume of 200 μl prior to analysis. A minimum of 10,000 living cells were analyzed.
2.5 μg of recombinant human Sox2-TAT (110-03T, Peprotech) was added to the culture media every 12 hours prior to analysis of transdetermination.

[2] = tested on: CD34+ OE-MSC-derived cells; experiment: Hematopoietic colony forming assays; type: cell-based, human; settings: CD34+ cells accumulated during chronic inhibition of TGFβ
Description: Hematopoietic clonogenic assays were performed in 35-mm low adherent plastic dishes (Stem Cell Technologies, Vancouver, BC, Canada) using 1.1 ml/dish of methylcellulose semisolid medium (MethoCult H4434 classic, Stem Cell Technologies) according to the manufacturer's instructions. Briefly, enriched CD34+ OE-MSC-derived cells were sorted and immediately plated at various densities: 1.5×10^3/ml, 3×10^3/ml and 6×10^3/ml. All assays were performed in duplicate. Colony-forming units (CFU) and Burst-forming units (BFU) were scored after 7 to 14 days of incubation according to their colony morphology as erythroid (CFU-E and BFU-E), granulocyte, erythroid, macrophage, megakaryocyte (CFU-GEMM), granulocyte-macrophage (CFU-GM), and macrophage (CFU-M).

Human MSCs [3] = experiment: Real time PCR (RT-PCR) analysis of hematopoietic and pluripotency marker mRNA; type: cell-based
Description: Total RNA was isolated using Trizol Reagent (Invitrogen) according to the manufacturer's recommendations. 1 μg of DNAse1 (invitrogen) treated total RNA was used for cDNA synthesis using the SuperScript II Reverse Transcriptase kit for RT-PCR (Invitrogen). Real-time PCR was performed using the SYBR-Green PCR Master mix (Applied Biosystems). The levels of expression of respective genes were normalized to corresponding GAPDH values and are shown as fold change relative to the value of the control sample. All the samples were done in triplicate. The sequences correspond to SEQ ID NOs:7-68, and are listed in order, i.e., SEQ ID NO:7 (OCT4 endogenous 5′ oligo), SEQ ID NO:8 (OCT4 endogenous 3′oligo), SEQ ID NO:9 (NANOG 5′ oligo), etc.

Human MSCs [4] = experiment: Western blotting of tyrosine phosphorylation of cellular proteins; type: cell-based; settings: TGF beta inhibition added to standard transgeneration conditions
Text: TGF signaling involves a series of serine/threonine phosphorylation events, and its regulation is related to the activity of the MAPK-MEK-ERK pathway, a receptor tyrosine kinase (RTK) activated pathway. Thus, in order to address potential crosstalk involving tyrosine phosphorylation-dependent pathways Applicants investigated the effect of Applicants' different protocols on tyrosine phosphorylation of multiple cellular proteins by western blotting.

Row | SMILES | generation of CD34+ cells (Human MSCs [1]; Sox2 transduction in combination with TGFβRI inhibitor (FIG. 4C)) | newly generated CD45+ cells (Human MSCs [1]; Sox2 transduction in combination with TGFβRI inhibitor, days 2-8 (FIG. 4D)) | generation of CD34+CD45+ and CD45+ cell populations (Human MSCs [1]; in combination with Sox2 transduction, 4 days of transdetermination (FIG. 5E)) | CD34+CD45+ cells (Human MSCs [1]; inhibition of the TGF beta pathway alone during ten days, compared to DMSO control, 25 μM) | CD34+ cells (Human MSCs [1]; inhibition of the TGFβ pathway, no Sox2 transduction, 25 μM) | CD34+ cells (Human MSCs [1]; long-term inhibition of TGF beta pathway during a one month period in culture, compared to standard protocol) | multilineage potential of sorted CD34+ cells [2] | endogenous Sox2 and Oct4 expression (Human MSCs [3]; chronic inhibition of TGFβ signaling alone (FIG. 4B)) | HPC-related markers at the mRNA level (Human MSCs [3]; chronic inhibition of TGFβ signaling alone, days 2-7 (FIG. 5C)) | early hematopoietic markers GATA2, Runx1, CD43 and CD41 (Human MSCs [3]; inhibition of TGF signaling) | endogenous Sox2 expression (Human MSCs [3]; inhibition of TGF signaling (Example 9)) | tyrosine phosphorylation of cellular proteins (Human MSCs [4]) | early CD34+ progenitors (Human MSCs [1]; chronic inhibition of ERK alone, no ectopic Sox2, 10 μM)
1 | NC(=O)c1ccc(-c2nc(-c3ccc4c(c3)OCO4)c(-c3ccccn3)[nH]2)cc1 [SB431542] | does not impair | significant reduction | significantly abolishes | around 10% | 10-25% | up to 75% | retain multilineage potential | sufficient to upregulate | significant upregulation | downregulation | downregulation | further enhances | 
2 | N#CC(=C(/N)Sc1ccccc1N)/C(C#N)=C(\N)Sc1ccccc1N [U0126] |  |  |  |  |  |  |  |  |  |  |  |  | up to 35%
